Experimental findings from patent publication US11691972B2, “Compounds for targeted degradation of BRD9” (C4 Therapeutics, Inc., priority 2020, dated 2023) are described below.

One may read the DC50 as the concentration giving 50% degradation.

Like-named read-outs stand apart in the source and are kept apart here.

In the assay the target is T1, BRD9 (Homo sapiens, UniProt Q9H8M2).
T1 sequence (Q9H8M2 1-597): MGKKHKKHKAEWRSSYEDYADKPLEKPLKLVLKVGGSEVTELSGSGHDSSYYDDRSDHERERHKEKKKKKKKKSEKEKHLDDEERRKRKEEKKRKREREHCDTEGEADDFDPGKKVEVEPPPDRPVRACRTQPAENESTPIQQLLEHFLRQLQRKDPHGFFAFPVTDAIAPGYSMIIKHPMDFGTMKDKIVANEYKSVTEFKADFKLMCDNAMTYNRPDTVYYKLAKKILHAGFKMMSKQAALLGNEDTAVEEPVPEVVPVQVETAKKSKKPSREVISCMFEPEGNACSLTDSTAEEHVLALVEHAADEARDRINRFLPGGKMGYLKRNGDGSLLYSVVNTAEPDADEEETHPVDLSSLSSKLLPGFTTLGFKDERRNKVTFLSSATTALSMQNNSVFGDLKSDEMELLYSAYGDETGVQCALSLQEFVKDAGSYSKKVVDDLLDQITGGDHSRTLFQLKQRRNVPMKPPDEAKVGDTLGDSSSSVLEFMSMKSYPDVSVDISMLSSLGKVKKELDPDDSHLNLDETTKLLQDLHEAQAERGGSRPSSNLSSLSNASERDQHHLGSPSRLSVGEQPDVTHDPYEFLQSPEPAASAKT
The assay can be described thus: HiBiT BRD9 degradation assay in 293T.166 (BRD9-HiBiT) cells. To be noted: 293T.166 cells, 2.0 hours, class symbols, read-out: HiBiT-Degradation 293T.166 BRD9 2.0 hours (DC50). On the set-up: endogenously expressing BRD9 with HiBiT fusion tag via CRISPR; host or cells: 293T.166 (BRD9-HiBiT), also expressing LgBiT ectopically. In kind it is cell-based. In outline:
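Luminescence from the Nano-Glo HiBiT lytic reagent quantified BRD9 loss after compounds (top 10 μM, half-log, 11 points, duplicates) were incubated 2 h at 37° C. with 10,000 293T.166 BRD9-HiBiT/LgBiT cells per well, with controls lacking compound or lacking reagent.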

`Cc1c(-c2ccc(C(C)N3CCC(C4CCN(c5ccc(NC6CCC(=O)NC6=O)cc5F)CC4)CC3)c(OC(F)(F)F)c2)cn(C)c(=O)c1C` (stereo not drawn) [Compound 91]: under “Table 1”, the DC50 was below 100 nM. On the same count and under the same terms, the value for `COc1cc(-c2cn(C)c(=O)c3[nH]ncc23)cc(OC)c1CN1CCN(C(=O)CN2CCC(c3ccc(NC4CCC(=O)NC4=O)cc3)CC2)CC1` (stereo not drawn) [Compound 1, 3-[4-[1-[2-[4-[[2,6-dimethoxy-4-(6-methyl-7-oxo-1H-pyrazolo[3,4-c]pyridin-4-yl)phenyl]methyl]piperazin-1-yl]-2-oxo-ethyl]-4-piperidyl]anilino]piperidine-2,6-dione] was below 100 nM. In the case of `COc1cc(-c2cn(C)c(=O)c(C)c2C)cc(OC)c1CN1C2CCC1CN(C(=O)CC1CCN(c3ccc(NC4CCC(=O)NC4=O)nc3)CC1)C2` (stereo not drawn) [Compound 272], the DC50 (Table 2) is below 100 nM. Regarding `COc1cc(-c2cn(C)c(=O)c3[nH]ncc23)cc(F)c1C=C1CCN(CC(=O)N2CCC(c3ccc(NC4CCC(=O)NC4=O)cc3)CC2)CC1` (stereo not drawn) [Compound 157, 3-[4-[1-[2-[4-[[2-fluoro-6-methoxy-4-(6-methyl-7-oxo-1H-pyrazolo[3,4-c]pyridin-4-yl)phenyl]methylene]-1-piperidyl]acetyl]-4-piperidyl]anilino]piperidine-2,6-dione], the half-maximal degradation concentration (DC50) (Table 1) is below 100 nM. On the same count and under the same terms, the value for `COc1cc(-c2cn(C)c(=O)c3cnccc23)cc(Cl)c1CN1CCc2c(CC3CCN(c4ccc(NC5CCC(=O)NC5=O)cc4F)CC3)cccc2C1` (stereo not drawn) [Compound 107] was below 100 nM; that for `Cc1c(-c2ccc(C(=O)N3CCC(N(C)C(=O)N4CCC(c5ccc(NC6CCC(=O)NC6=O)cc5)CC4)CC34CC4)c(OC(F)(F)F)c2)cn(C)c(=O)c1C` (stereo not drawn) [Compound 137] was below 100 nM; that for `COc1cc(-c2cn(C)c(=O)c3[nH]ncc23)cc(OC)c1CN1CCc2c(CN3CCC(c4ccc(NC5CCC(=O)NC5=O)cc4)CC3)cccc2C1` (stereo not drawn) [Compound 98] was below 100 nM.

Regarding `COc1cc(-c2cn(C)c(=O)c3cnccc23)cc(F)c1CC1CCN(C(=O)CC2CCN(c3ccc(NC4CCC(=O)NC4=O)cc3F)CC2)CC1` (stereo not drawn) [Compound 158, 3-[3-fluoro-4-[4-[2-[4-[[2-fluoro-6-methoxy-4-(2-methyl-1-oxo-2,7-naphthyridin-4-yl)phenyl]methyl]-1-piperidyl]-2-oxo-ethyl]-1-piperidyl]anilino]piperidine-2,6-dione], the 50% degradation concentration (DC50) (Table 1) was below 100 nM. For `COc1cc(-c2cn(C)c(=O)c(C)c2C)cc(Cl)c1C(=O)N1CCC(C2CCN(c3ccc(NC4CCC(=O)NC4=O)cc3F)CC2)CC1` (stereo not drawn) [Compound 208, 3-[4-[4-[1-[2-chloro-6-methoxy-4-(1,4,5-trimethyl-6-oxo-3-pyridyl)benzoyl]-4-piperidyl]-1-piperidyl]-3-fluoro-anilino]piperidine-2,6-dione], where the note is “Table 1”, the DC50 is below 100 nM. On the same count and under the same terms, then `COc1cc(-c2cn(C)c(=O)c3[nH]ncc23)cc(Cl)c1C(=O)N1CCC(C2CCN(c3ccc(NC4CCC(=O)NC4=O)cc3F)CC2)CC1` (stereo not drawn) [Compound 216], with below 100 nM.

With `COc1cc(-c2cn(C)c(=O)c3[nH]ncc23)cc(OC)c1CN1CCN(C(=O)CN2CCC(c3ccc(OC4CCC(=O)NC4=O)cc3)CC2)CC1` (stereo not drawn) [Compound 21], where the note is “Table 1”, the DC50 is below 100 nM. The same measure, in the same setting: then `COc1cc(-c2cn(C)c(=O)c3[nH]ncc23)cc(OC)c1CN1CCN(C(=O)CC2CCN(c3ccc(NC4CCC(=O)NC4=O)cc3C(F)(F)F)CC2)CC12CC2` (stereo not drawn) [Compound 58], with below 100 nM; and `COc1cc(-c2cn(C)c(=O)c3cnccc23)cc(Cl)c1CN1CCC(N2CCN(c3ccc(NC4CCC(=O)NC4=O)cc3F)CC2)C(F)(F)C1` (single isomer, unassigned) [Compound 181, 3-[4-[4-[1-[[2-chloro-6-methoxy-4-(2-methyl-1-oxo-2,7-naphthyridin-4-yl)phenyl]methyl]-3,3-difluoro-4-piperidyl]piperazin-1-yl]-3-fluoro-anilino]piperidine-2,6-dione], with below 100 nM. Consider `COc1cc(-c2cn(C)c(=O)c3[nH]ncc23)cc(OC)c1CN1CCN(C(=O)Cc2ccc(-c3ccc(NC4CCC(=O)NC4=O)cc3)cc2)CC1` (stereo not drawn) [Compound 167, 3-[4-[4-[2-[4-[[2,6-dimethoxy-4-(6-methyl-7-oxo-1H-pyrazolo[3,4-c]pyridin-4-yl)phenyl]methyl]piperazin-1-yl]-2-oxo-ethyl]phenyl]anilino]piperidine-2,6-dione], for which the half-maximal degradation concentration (DC50) (Table 1) is below 100 nM. On the same count and under the same terms, then `COc1cc(-c2cn(C)c(=O)c(C)c2C)cc(Cl)c1CN1CCC(F)(C2CCN(c3ccc(NC4CCC(=O)NC4=O)cc3F)CC2)CC1` (stereo not drawn) [Compound 245], with below 100 nM.
